This is an account of results in US10456451B2, “Protease-resistant mutants of stromal cell derived factor-1 in the repair of tissue damage” (Mesoblast International Sàrl, priority 2010, dated 2019).

pEC50: −log10 of the molar value. Several values for one entry are separate records, joined by “and”; a condition that tells them apart may be missing. Equal values may be shown once. * marks the point of attachment. MCA = fluorescent 7-methoxycoumarin-3-carboxylic acid residue, COc1ccc2cc(C(=O)*)c(=O)oc2c1; Dpn = quencher lysine-dinitrophenol residue

One experiment concerns the target T1, MMP-2 (Homo sapiens, UniProt P08253).
T1 construct: purchased R&D Systems
T1 sequence (P08253 110-660): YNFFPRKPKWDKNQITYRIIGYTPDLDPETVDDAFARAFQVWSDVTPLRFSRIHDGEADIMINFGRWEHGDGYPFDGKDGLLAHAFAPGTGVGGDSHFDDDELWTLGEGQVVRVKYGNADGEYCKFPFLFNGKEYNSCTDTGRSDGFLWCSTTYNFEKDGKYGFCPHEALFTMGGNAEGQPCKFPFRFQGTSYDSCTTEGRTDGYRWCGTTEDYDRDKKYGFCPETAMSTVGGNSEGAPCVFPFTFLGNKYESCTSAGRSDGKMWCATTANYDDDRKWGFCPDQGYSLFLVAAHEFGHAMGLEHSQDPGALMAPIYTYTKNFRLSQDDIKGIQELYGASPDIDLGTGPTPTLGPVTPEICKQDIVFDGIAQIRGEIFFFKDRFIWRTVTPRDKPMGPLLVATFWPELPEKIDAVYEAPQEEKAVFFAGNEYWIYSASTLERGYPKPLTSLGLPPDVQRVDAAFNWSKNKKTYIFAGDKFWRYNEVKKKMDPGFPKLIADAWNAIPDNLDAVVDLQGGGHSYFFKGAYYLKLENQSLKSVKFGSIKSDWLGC
The experiment in a line: MMP-2 cleavage of FRET-based N-terminal 8 amino acid peptides. Type of experiment: biochemical. To be noted: for amount of peptide cleaved by MMP-2: after 4 hours, n=4; for initial cleavage rate by MMP-2: calculated 60 minutes after addition of MMP-2, n=4. How it is done:
All peptides were synthesized with a fluorescent 7-methoxycoumarin-3-carboxylic acid (MCA) residue at the N-terminus and a quencher lysine-dinitrophenol (Dpn) residue at the C-terminus. […] Enzymatic cleavage of these peptides separated MCA from Dpn, resulting in an increased fluorescence. Peptides (10 μM) were then incubated with activated MMP-2 (Table 1), leukocyte elastase (Table 2), or cathepsin G (Table 3) (1.4 nM) in TNCB buffer (50 mM Tris, pH 7.5, with 10 mM calcium chloride, 150 mM sodium chloride, and 0.05% BRIJ 35) or phosphate-buffered saline (PBS) at 21° C. Fluorescence was measured at 340 nm excitation and 405 nm emission wavelengths at different time points with a Victor Wallace II plate reader.
Human recombinant MMP-2 (R&D Systems) was activated for 1 hour with 4-aminophenylmercuric acetate (APMA, 1 mM) at 37° C. 4 μg of Sumo-SSDF-1-RAD or Sumo-SSDF-1(S4V)-RAD was incubated for 1 hour to 48 hours at 21° C. with 50 ng of activated MMP-2 in TCNB buffer (50 mM Tris, pH 7.5, 10 mM CaCl2, 150 mM NaCl, 0.05% Brij-35). Sample loading buffer (Invitrogen) and 2-mercaptoethanol (0.5 M, final concentration) were added, and samples were boiled for 5 minutes and run on a 10% Bis-Tris gel. Proteins used for this experiment were obtained after cation-exchange chromatography, but were neither cleaved by Sumo-protease nor purified by RPC-HPLC.

In experiment [1] the test system is Jurkat T-lymphocytic cells. Description: Jurkat T-lymphocyte migration (chemotaxis) assay. Type of experiment: cell-based. The conditions noted are these: for pEC50 / Jurkat Chemotaxis EC50: Jurkat cells, 3 hours migration; for activity of C-terminal variant relative to SDF-1 and SSDF-1: Jurkat migration, CXCR4 cAMP and CXCR β-arrestin assays; for activity of C-terminal variant relative to SDF-1 and SSDF-1 / activity in Jurkat cell migration assay: result in words. How it is done: Jurkat cells were labeled with Calcein-AM (1 μM) for 60 minutes at 37° C., washed twice and resuspended in RPMI without phenol red to a final density of 4,000,000 cells/ml. […] Cells were allowed to migrate for 3 hours, and cells in lower wells were washed once with PBS. Fluorescence in lower wells was measured at 485 nm excitation and 535 nm emission wavelengths with a Victor Wallace II plate reader. A standard curve was constructed for each experiment to normalize fluorescence to the number of cells.

Another experiment concerns the target CXCR7 (Homo sapiens, UniProt P25106). Description: CXCR7 β-arrestin recruitment assay (PathHunter). Type of experiment: cell-based. How it is done:
PathHunter β-arrestin assays were performed following the instructions of the manufacturer (DiscoveRx). Briefly, PathHunter cell lines stably expressing both a β-arrestin-Enzyme Acceptor of β-galactosidase fusion and one of the chemokine receptors fused with the ProLink donor peptide of […] were employed. Upon CXCR stimulation, β-arrestin is recruited to the receptor for desensitization, bringing the two fragments (the Enzyme Acceptor and the ProLink) of β-galactosidase together. This generates an active β-galactosidase enzyme that can convert a substrate to a chemiluminescent product. Cells were seeded at a density of 5000 cells/well in a 384-well plate and were allowed to adhere overnight. […] After incubation, chemiluminescent signal was generated through addition of 12.5 μl (50% v/v) of PathHunter Detection reagent cocktail (DiscoveRx) followed by a 1-hour incubation at room temperature. Microplates were read with a PerkinElmer ViewLux instrument.

The target in another experiment is CXCR4 (Homo sapiens, UniProt P61073). Description: CXCR4 cAMP receptor activation assay (CHO-K1 cells expressing CXCR4). Type of experiment: cell-based. Also on record: host or cells: CHO-K1. The conditions noted are these: decrease in cAMP by Gαi activation, forskolin at EC80. The method, then: For the CXCR4 cAMP assay, CHO-K1 cells stably expressing the CXCR4 receptor (DiscoveRx, Fremont, Calif.) were seeded at a density of 10,000 cells/well in a 384-well plate and were allowed to recover overnight. A decrease in cAMP by CXCR4-induced Gαi activation was determined using the DiscoveRx HitHunter cAMP XS+assay following the manufacturer's protocol. […] Chemiluminescence was read with a PerkinElmer ViewLux instrument.

In experiment [2] the test system is ischemic hindlimb blood flow. Description: Hindlimb ischemia model, laser Doppler blood flow. Type of experiment: in vivo, C57BL/6 mice. The conditions noted are these: without nanofibers. The method, then: All animal protocols were approved by the institutional IACUC and performed in an AAALAC certified facility. Studies were performed blinded and randomized. Hindlimb ischemia was produced in male C57BL/6 mice (305 mice total), 8 to 12 weeks old (Jackson Laboratories and Charles River Laboratories). Mice were anesthetized with isoflurane (2-3% in 100% oxygen) and buprenorphin (0.05 mg/kg). Femoral artery was ligated and excised below the inguinal ligament and above the bifurcation of the popliteal artery. Protein and self-assembling peptide nanofibers were injected in the lower hindlimb after excision of the artery. Peptides were dissolved in isotonic sucrose (10%). Post-operative analgesia was provided with buprenorphin (0.05 mg/kg every 6 to 12 hours for 72 hours). The surgeon was blinded to the treatment groups in all studies performed. The first study included 35 animals total (5 animals per group), which received an intramuscular injection in the lower hindlimb with biotin-labeled nanofibers (biotin-RAD, 0.01% in 1% nanofibers hydrogel). Tissues were harvested at seven different time points and nanofibers were stained with Alexa fluor-labeled streptavidin. The second study included 40 animals (10 per group) with four groups: control without injection, nanofibers only, nanofibers+100 nM SSDF-1-RAD, and nanofibers+100 nM SSDF-1(S4V)-RAD. Laser Doppler blood flow measurements were performed with a Moor LDI2-IR (Moor Instruments) 2, 4, and 6 weeks after surgery. At each time point, five measurements (on average) per animal were made, and blood flow in the ischemic limb was normalized to blood flow in normal limb. The third study included 50 animals with four different dosages of SSDF-1(S4V)-RAD; all groups contained nanofibers. All laser Doppler measurements and histology quantifications were made by an operator blinded to the treatment groups.

Chain of CXCR7 (P25106 whole entry, the tested form may be a part): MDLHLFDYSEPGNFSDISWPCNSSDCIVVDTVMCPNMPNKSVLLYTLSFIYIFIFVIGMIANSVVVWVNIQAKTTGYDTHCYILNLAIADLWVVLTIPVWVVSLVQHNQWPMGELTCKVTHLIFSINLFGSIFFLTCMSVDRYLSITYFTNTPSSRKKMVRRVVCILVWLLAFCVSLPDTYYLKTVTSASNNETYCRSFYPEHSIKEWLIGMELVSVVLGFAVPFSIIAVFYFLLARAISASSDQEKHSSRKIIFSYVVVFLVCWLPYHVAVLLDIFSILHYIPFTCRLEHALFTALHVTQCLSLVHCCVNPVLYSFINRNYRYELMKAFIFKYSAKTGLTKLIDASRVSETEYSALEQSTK
Chain of CXCR4 (P61073 whole entry): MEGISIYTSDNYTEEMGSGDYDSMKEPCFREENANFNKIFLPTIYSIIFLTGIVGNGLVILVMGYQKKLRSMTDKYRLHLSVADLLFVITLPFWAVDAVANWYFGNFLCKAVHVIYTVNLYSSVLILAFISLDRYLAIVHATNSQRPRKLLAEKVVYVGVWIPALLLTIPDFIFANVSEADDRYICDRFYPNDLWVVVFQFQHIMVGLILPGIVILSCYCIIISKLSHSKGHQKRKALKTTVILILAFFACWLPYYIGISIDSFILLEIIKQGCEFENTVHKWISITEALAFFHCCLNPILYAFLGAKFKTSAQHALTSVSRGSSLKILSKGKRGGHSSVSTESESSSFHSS

Regarding “KPVSLSYR ({MCA}-KPVSLSYR-Dpn; listed as Homo sapiens) [SDF-1-N-terminal peptide, reference compound]”, in the experiment with MMP-2, the “amount of peptide cleaved by MMP-2” value is 205 ± 18 pmol and the “initial cleavage rate by MMP-2” value is reported as 2.0±0.1×10^−10 M s^−1.
For the substance “SDF-1(S4V)-N-terminal peptide: First 8 amino acids of SDF-1(S4V) (SEQ ID NO:91) with MCA at the N-terminus and quencher Dpn at the C-terminus ({MCA}-KPVVLSYR-Dpn)”, in the experiment with MMP-2, the “amount of peptide cleaved by MMP-2” value was 1 ± 3 pmol and the “initial cleavage rate by MMP-2” value was 0.1±0.1×10^−10 M s^−1.
As for “SDF-1: Unmutated SDF-1α, 68 amino acids, SEQ ID NO:52 [reference compound]”, the negative logarithm of the EC50 (pEC50) in experiment [1] was 8.82 and 8.74.
Turning to “SSDF-1 (+69S): SSDF-1 with an amino acid residue (serine) added to the C-terminal end”, in experiment [1], the pEC50 was 7.92; the “activity of C-terminal variant relative to SDF-1 and SSDF-1” value is reported as “retains significant activity”. For the same substance, the pEC50 in experiment [1] (listed as SSDF-1(+69S)) is 8.70.
As for “SSDF-1 (L5D): SDF-1 with Leu→Asp at position 5 and N-terminal serine”, in experiment [1], the “Jurkat Chemotaxis EC50” value was “Inactive” and the “activity in Jurkat cell migration assay” value was “inactive”.
For “SSDF-1 (L5E): SDF-1 with Leu→Glu at position 5 and N-terminal serine” the same measures were “Inactive” and “inactive”.
On to “SSDF-1 (L5H): SDF-1 with Leu→His at position 5 and N-terminal serine”, for which, in experiment [1], the “Jurkat Chemotaxis EC50” value is reported as “Inactive” and the “activity in Jurkat cell migration assay” value is “inactive”.
For “SSDF-1 (L5K): SDF-1 with Leu→Lys at position 5 and N-terminal serine” the same measures were “Inactive” and “inactive”.
On to “SSDF-1 (L5P): SDF-1 with Leu→Pro at position 5 (SEQ ID NO:66) and N-terminal serine”, for which the results for the pEC50 (in experiment [1]; with CXCR7) were 6.92 and 6.65, respectively. In addition, the “CXCR4 (cAMP) EC50” value with CXCR4 is “Inactive”.
With “SSDF-1 (L5T): SDF(L5T) (SEQ ID NO:56) with N-terminal serine”, the pEC50 in experiment [1] was 7.70; with CXCR7, 8.06; with CXCR4 it was 8.44.
Consider “SSDF-1 (L5V): SDF(L5V) (SEQ ID NO:60) with N-terminal serine”, for which the pEC50 in experiment [1] was 7.44; with CXCR7, 7.68; with CXCR4 it was 7.48.
Take “SSDF-1 (L5W): SDF-1 with Leu→Trp at position 5 and N-terminal serine”: in experiment [1], the “Jurkat Chemotaxis EC50” value is “Inactive” and the “activity in Jurkat cell migration assay” value is “inactive”.
For the substance “SSDF-1 (S6C): SDF(S6C) (SEQ ID NO:61) with N-terminal serine”, the values for the pEC50 (in experiment [1]; with CXCR7; with CXCR4) were 7.64, 7.54 and 7.92, respectively.
Taken in the same sequence, the figures for “SSDF-1 (S6G): SDF(S6G) (SEQ ID NO:62) with N-terminal serine” were 7.96, 7.60 and 8.07.
Turning to “SSDF-1 (V3C): SDF(V3C) (SEQ ID NO:55) with N-terminal serine”, the pEC50 was 7.82 in experiment [1], 7.85 with CXCR7 and 9.22 with CXCR4.
Regarding “SSDF-1 (V3D): SDF-1 with Val→Asp at position 3 and N-terminal serine”, in experiment [1], the “Jurkat Chemotaxis EC50” value is listed as “Inactive” and the “activity in Jurkat cell migration assay” value was “inactive”.
As for “SSDF-1 (V3G): SDF-1 with Val→Gly at position 3 and N-terminal serine”, in experiment [1], the “Jurkat Chemotaxis EC50” value is given as “Inactive” and the “activity in Jurkat cell migration assay” value is “inactive”.
With “SSDF-1 (V3H): SDF(V3H) (SEQ ID NO:54) with N-terminal serine”, the pEC50 in experiment [1] was 8.17; in the experiment with CXCR7, 7.04; with CXCR4 it was 9.00.
As to “SSDF-1 (V3P): SDF-1 with Val→Pro at position 3 and N-terminal serine”, in experiment [1], the “Jurkat Chemotaxis EC50” value is reported as “Inactive” and the “activity in Jurkat cell migration assay” value was “inactive”.
Take “SSDF-1 (−68K): SDF-1 lacking the C-terminal lysine, with N-terminal serine”: the values for the negative logarithm of the EC50 (pEC50) in experiment [1] and in experiment [1] (listed as SSDF-1(−68K)) were 8.66 and 8.89, respectively. Besides, the “activity of C-terminal variant relative to SDF-1 and SSDF-1” value in experiment [1] is listed as “unchanged”.
As to “SSDF-1(S4V)(−68K): SSDF-1(S4V) lacking the C-terminal lysine”, the pEC50 in experiment [1] was 8.00.
The same measure, in the same setting: to “SSDF-1(S4V)-RADI: Fusion protein of SSDF-1(S4V) and RAD16-I sequence, six glycine linker (SEQ ID NO:75)” belongs 7.74; to “SSDF-1(S4V)γ: SDF-1γ version of SSDF-1(S4V)”, 7.33.
The substance “SSDF-1: SDF-1 with a serine residue added at the N-terminus” gave a negative logarithm of the EC50 (pEC50) in experiment [1] of 8.80. The “blood flow differences between groups” value in experiment [2] (fourth study, 1 mg/kg daily IM for first 7 days) was “No significant differences in blood flow”; in experiment [2] (separate confirming study, same doses and schedule), “did not show significant differences between groups”.
